{"source": "patent US20230263779A1", "about": "“METHODS OF TREATING SOLID TUMORS USING NANOPARTICLE MTOR INHIBITOR COMBINATION THERAPY” (Abraxis BioScience, LLC, priority 2015, published 2023)", "origin": "cited, not measured here", "key": {"[1]": {"system": "ABCB1/ABCG2"}, "[2]": {"settings": "in vivo"}}}
{"compound": "COc1ccc(COc2cc3oc(=O)c4cc(C(C)O)ccc4c3cc2OC)cc1", "note": "(centres unmarked) [Palomid 529]", "values": [{"measurement": "affinity for ABCB1/ABCG2", "setting": "[1]", "result": "lacks affinity"}, {"measurement": "brain penetration", "setting": "[2]", "result": "good brain penetration"}]}
